Here are results for six compounds from patent US20260337209A1, “BORON-CAPPED CLATHROCHELATE AND MACROCYCLIC LIGANDS AND METAL COMPLEXES THEREOF” (UVic Industry Partnerships Inc., priority 2022, published 2026).

Format in all cases: physicochemical
Data set [1] in a line: CV (cyclic voltammetry) in dry CH3CN. The note with it: 0.1 M NBu^n4^+PF6^−. As to the method:
Mauve powder. Yield: 92% (based on formula). Mp. dec. 315° C. ^1H NMR (300 MHz, dmso-d6, 298 K): δ 80.0 (1H relative int., v1/2=450 Hz), 77.9 (1H, v1/2=50 Hz), 53.1 (2H, v1/2=480 Hz), 46.8 (2H, v1/2=450 Hz), 39.4 (2H and 1H overlap, broad and sharp resonances), 21.8 and 19.5 (2H each, broad and overlapping), 13.0 (1H, v1/2=400 Hz), −2.0 (1H, v1/2=350 Hz), −4.2 (1H, v1/2=350 Hz), […] (2H, v1/2=450 Hz), −8.6 (1H, v1/2=40 Hz), −28.7 (1H, v1/2=50 Hz), −52.7 (1H, v1/2=450 Hz), −72.8 (v1/2=500 Hz). NMR (360 MHz, dmso-d6, 373 K): δ 18.49 (6H, br s, 4′- or 5′-pzH, v1/2=85 Hz), 17.00 (6H, br s, 3,5-pyH, v1/2=65 Hz), 7.88 (6H, br s, 4′- or 5′-pzH, v1/2=80 Hz), 4.18 (3H, br s, 4-pyH, v1/2=30 Hz), −4.25 (2H, br s, BH, v1/2=320 Hz). […] Fc/Fc^+); Co(NO3)2 under the same conditions: E1/2 (ox)=+1.8 V (vs. Fc/Fc^+). μeff=4.7 BM (Evans' method). A mononuclear 1:1 complex [9a]of cage [4a] with Co^2+ has been characterized by X-ray crystallography. A Co(OH2)3^2+ unit is bound up in the tris(pyrazolyl) cap.
A blue-green powder was obtained from reaction of Cu(NO3)2(H2O)2.5 with [4a] in a 1:1 ratio. The ^1H NMR spectrum of this product is very similar to that of [11c′], obtained as one product in the reaction of Cu(O3SCF3)2 with [4a] in 3:1 ratio. […]

A short description of a further data set: solubility in solvents. The note with it: for solubility in acetone: solvent acetone.
Data set [2] is described as follows: TGA (thermogravimetric analysis). The note with it: [4a]·i-PrOH·2 H2O. The procedure: Exemplary embodiments of the technology are illustrated by the following non-limiting Examples, in which the reactions were carried out under air or nitrogen as indicated using commercially available reagents as received unless otherwise specified. NMR spectra were recorded on Bruker AVANCE 300, 360 or 500 MHz instruments relative to residual solvent resonances (^1H, ^13C), an external reference (BF3·OEt2 for ^11B) or by indirect detection (^15N by HMBC, in ppm relative to NH3). Melting points were determined using an Omega Engineering Model 199 instrument and are uncorrected. Mass spectra were recorded on a Q-TOF II instrument by MicroMass using electrospray ionization. TGA were recorded between room temperature and 600° C. Elemental analysis for C, H and N were obtained by Canadian Microanalytical Services, Delta, B.C., Canada or Guelph Chemical Laboratories Ltd., Guelph, ON, Canada.

Structures can show the parent of a compound that is named as a salt.

`O=[N+]([O-])[O-].O=[N+]([O-])[O-].[Co+2]` [Co(NO3)2]: the “E1/2 (ox)” value in data set [1] (250 mV s^−1) is reported as “+1.8 V (vs. Fc/Fc^+)”.
Take “Tris(2,6-pyrazolyl-4-(4′-methoxybenzylthiolato)pyridino)diborate dipotassium salt [4t]”: in “solubility in solvents” (solvent benzene), the solubility in benzene result is given as “somewhat soluble”.
Consider `O=[N+]([O-])[O-].O=[N+]([O-])[O-].[Cu+2]` [Cu(NO3)2], for which the “E1/2 (red)” value in data set [1] is recorded as −0.8 V (vs. Fc/Fc^+).
In the case of `CC1(C)c2ccn(n2)Bn2ccc(n2)C(C)(C)c2ccn(n2)Bn2ccc1n2` [8′a, Bis(2,2-dipyrazolylpropane)diborate dipotassium salt], the “solubility in diethyl ether” value in the data set “solubility in solvents” (diethyl ether, relative to the corresponding cage [7′a]) is “notably less soluble”.
`c1cc2nc(c1)-c1ccn(n1)B1n3ccc(n3)-c3cccc(n3)-c3ccn(n3)B(n3ccc-2n3)n2ccc(n2)-c2cccc(n2)-c2ccn1n2` [4a, Tris(2,6-pyrazolylpyridino)diborate dipotassium salt]: the solubility in halocarbons result in the data set “solubility in solvents” (CH2Cl2 and CHCl3) is recorded as “slightly soluble”. Further, the solubility in alcohols entry in the data set “solubility in solvents” (MeOH, EtOH, i-PrOH) is reported as “slightly soluble”. Also, in the data set “solubility in solvents” (pure water), the “solubility in pure water” value was “very limited solubility”. In the data set “solubility in solvents” (solvent DMSO), the “solubility in DMSO” value is listed as “very soluble”. The “solubility in THF” value in the data set “solubility in solvents” (solvent THF) is given as “moderately soluble”. Moreover, the solubility in acetone result in the data set “solubility in solvents” is given as “very soluble”. Also, the “solubility in acidic water” value in “solubility in solvents” (solvent acidic water) was “moderately soluble”. Moreover, the “solubility in ethyl acetate” value in the data set “solubility in solvents” (solvent ethyl acetate) is “moderately soluble”. Also, in data set [2], the “onset of decomposition (TGA)” value is > 450 °C.
Turning to `c1cc2cc(c1)-c1ncn(n1)B1n3cnc(n3)-c3cccc(c3)-c3ncn(n3)B(n3cnc-2n3)n2cnc(n2)-c2cccc(c2)-c2ncn1n2` [7a, tris(2,6-di(1′,2′,4′-triazol-3′ yl)benzene)diborate dipotassium salt], the “solubility in dmso-d6” value in “solubility in solvents” (dmso-d6, mild heating) is given as “dissolved with mild heating in dmso-d6”. In addition, in the data set “solubility in solvents”, the solubility in acetone result was “would not dissolve in acetone”.
